Results reported in ChEMBL document CHEMBL1201861, “Genomics of Drug Sensitity in Cancer screening data, Wellcome Trust Sanger Institute”.

What was measured:
BEN = test: cells; assay type: functional, cell-based; conditions: Homo sapiens;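 note: growth inhibition of the BEN cell line, read out with a cell viability assay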
Description: SANGER: Inhibition of human BEN cell growth in a cell viability assay.

SKG-IIIa = test: cells; assay type: functional, cell-based; conditions: Homo sapiens;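 note: cell growth inhibition, read out with a cell viability assay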
Description: SANGER: Inhibition of human SKG-IIIa cell growth in a cell viability assay.

SK-N-AS = test: cells; assay type: functional, cell-based; conditions: Homo sapiens;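 note: growth inhibition of human SK-N-AS cells, measured with a cell viability assay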
Description: SANGER: Inhibition of human SK-N-AS cell growth in a cell viability assay.

NCI-H2081 = test: cells; assay type: functional, cell-based, Homo sapiens; conditions: Homo sapiens, NCI-H2081;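 note: growth inhibition of human NCI-H2081 cells, read out with a cell viability assay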
Description: SANGER: Inhibition of human NCI-H2081 cell growth in a cell viability assay.

HT-1080 = test: cells; assay type: functional, cell-based; conditions: Homo sapiens
Description: SANGER: Inhibition of human HT-1080 cell growth in a cell viability assay.

GMS-10 = test: cells; assay type: functional, cell-based; conditions: Homo sapiens;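 note: growth inhibition of GMS-10 cells, read out as cell viability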
Description: SANGER: Inhibition of human GMS-10 cell growth in a cell viability assay.

HuP-T3 = test: cells; assay type: functional, cell-based; conditions: Homo sapiens;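 note: HuP-T3 cell growth inhibition, read out with a cell viability assay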
Description: SANGER: Inhibition of human HuP-T3 cell growth in a cell viability assay.

COLO-680N = test: cells; assay type: functional, cell-based; conditions: Homo sapiens;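 note: cell viability assay used to measure inhibition of COLO-680N cell growth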
Description: SANGER: Inhibition of human COLO-680N cell growth in a cell viability assay.

BXPC-3 = test: cells; assay type: functional, cell-based; conditions: Homo sapiens;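 note: growth inhibition of human BxPC-3 cells, read out by a cell viability assay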
Description: SANGER: Inhibition of human BxPC-3 cell growth in a cell viability assay.

OPM-2 = test: cells; assay type: functional, cell-based, Homo sapiens; conditions: Homo sapiens, OPM-2;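 note: growth of OPM-2 cells measured with a viability assay, IC50 for suppression of proliferation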
Description: SANGER: Inhibition of human OPM-2 cell growth in a cell viability assay.

HOS = test: cells; assay type: functional, cell-based; conditions: Homo sapiens;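 note: growth inhibition of human HOS cells, read out with a cell viability assay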
Description: SANGER: Inhibition of human HOS cell growth in a cell viability assay.

UMUC3 = test: cells; assay type: functional, cell-based; conditions: Homo sapiens;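 note: growth inhibition of human UM-UC-3 cells, read out with a cell viability assay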
Description: SANGER: Inhibition of human UM-UC-3 cell growth in a cell viability assay.

DMS-153 = test: cells; assay type: functional, cell-based, Homo sapiens; conditions: Homo sapiens, DMS-153
Description: SANGER: Inhibition of human DMS-153 cell growth in a cell viability assay.

MFH-ino = test: cells; assay type: functional, cell-based, Homo sapiens; conditions: Homo sapiens, MFH-ino;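 note: growth inhibition of human MFH-ino cells, read out by a cell viability assay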
Description: SANGER: Inhibition of human MFH-ino cell growth in a cell viability assay.

YT = test: cells; assay type: functional, cell-based, Homo sapiens; conditions: Homo sapiens, YT
Description: SANGER: Inhibition of human YT cell growth in a cell viability assay.

NCI-H1693 = test: cells; assay type: functional, cell-based; conditions: Homo sapiens;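 note: growth inhibition of the human cell line, read out with a cell viability assay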
Description: SANGER: Inhibition of human NCI-H1693 cell growth in a cell viability assay.

CHP-126 = test: cells; assay type: functional, cell-based, Homo sapiens; conditions: Homo sapiens, CHP-126
Description: SANGER: Inhibition of human CHP-126 cell growth in a cell viability assay.

BC1 cell line = test: SANGER: Inhibition of human BC-1 cell growth in a cell viability assay.; assay type: functional, cell-based; conditions: Homo sapiens, BC1
SK-MES-1 = test: cells; assay type: functional, cell-based; conditions: Homo sapiens;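 note: growth inhibition of human SK-MES-1 cells, read out with a cell viability assay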
Description: SANGER: Inhibition of human SK-MES-1 cell growth in a cell viability assay.

KYSE-510 = test: cells; assay type: functional, cell-based; conditions: Homo sapiens;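 note: cell viability readout used to measure how strongly growth of the cell line is suppressed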
Description: SANGER: Inhibition of human KYSE-510 cell growth in a cell viability assay.

SK-MM-2 = test: cells; assay type: functional, cell-based, Homo sapiens; conditions: Homo sapiens, SK-MM-2;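 note: growth inhibition of human SK-MM-2 cells, read out with a cell viability assay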
Description: SANGER: Inhibition of human SK-MM-2 cell growth in a cell viability assay.

ABC-1 = test: cells; assay type: functional, cell-based; conditions: Homo sapiens;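 note: growth inhibition of human ABC-1 cells, read out by a cell viability assay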
Description: SANGER: Inhibition of human ABC-1 cell growth in a cell viability assay.

BFTC-905 = test: cells; assay type: functional, cell-based; conditions: Homo sapiens
Description: SANGER: Inhibition of human BFTC-905 cell growth in a cell viability assay.

CAMA-1 = test: cells; assay type: functional, cell-based; conditions: Homo sapiens;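 note: growth inhibition of CAMA-1 cells, read out with a cell viability assay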
Description: SANGER: Inhibition of human CAMA-1 cell growth in a cell viability assay.

MFE-280 = test: cells; assay type: functional, cell-based; conditions: Homo sapiens;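 note: growth inhibition of MFE-280 cells, determined with a cell viability readout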
Description: SANGER: Inhibition of human MFE-280 cell growth in a cell viability assay.

U-251 = test: cells; assay type: functional, cell-based; conditions: Homo sapiens;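 note: growth inhibition of human U-251 cells, read out through a cell viability assay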
Description: SANGER: Inhibition of human U251 cell growth in a cell viability assay.

U2OS = test: cells; assay type: functional, cell-based, U-2-OS; conditions: Homo sapiens;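 note: growth inhibition of human U-2-OS cells, determined with a cell viability assay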
Description: SANGER: Inhibition of human U-2-OS cell growth in a cell viability assay.

SJRH30 = test: cells; assay type: functional, cell-based; conditions: Homo sapiens;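 note: growth inhibition of human SJRH30 cells, read out with a cell viability assay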
Description: SANGER: Inhibition of human SJRH30 cell growth in a cell viability assay.

TYK-nu = test: cells; assay type: functional, cell-based; conditions: Homo sapiens;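 note: growth inhibition of human TYK-nu cells, read out by a cell viability assay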
Description: SANGER: Inhibition of human TYK-nu cell growth in a cell viability assay.

CP50-MEL-B = test: cells; assay type: functional, cell-based; conditions: Homo sapiens;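 note: growth inhibition of the human cell line, measured with a cell viability read-out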
Description: SANGER: Inhibition of human CP50-MEL-B cell growth in a cell viability assay.

FTC-133 = test: cells; assay type: functional, cell-based; conditions: Homo sapiens
RL = test: cells; assay type: functional, cell-based, Homo sapiens; conditions: Homo sapiens, RL
Description: SANGER: Inhibition of human RL cell growth in a cell viability assay.

COR-L23 = test: cells; assay type: functional, cell-based; conditions: Homo sapiens;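 note: cell viability assay measuring how strongly compounds suppress growth of COR-L23 cells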
Description: SANGER: Inhibition of human COR-L23 cell growth in a cell viability assay.

SCC-9 = test: cells; assay type: functional, cell-based; conditions: Homo sapiens;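 note: Read-out is a cell viability assay, with values giving inhibition of cell growth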
Description: SANGER: Inhibition of human SCC-9 cell growth in a cell viability assay.

ESS-1 = test: cells; assay type: functional, cell-based; conditions: Homo sapiens;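 note: growth inhibition of human ESS-1 cells, read out by a cell viability assay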
Description: SANGER: Inhibition of human ESS-1 cell growth in a cell viability assay.

5637 = test: cells; assay type: functional, cell-based; conditions: Homo sapiens
Description: SANGER: Inhibition of human 5637 cell growth in a cell viability assay.

A673 = test: cells; assay type: functional, cell-based; conditions: Homo sapiens;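 note: growth inhibition of human A673 cells, read out through a cell viability assay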
Description: SANGER: Inhibition of human A673 cell growth in a cell viability assay.

CWR22R = test: cells; assay type: functional, cell-based; conditions: Homo sapiens, 22Rv1;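 note: growth inhibition of 22Rv1 cells, read out with a cell viability assay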
Description: SANGER: Inhibition of human 22RV1 cell growth in a cell viability assay.

NCI-H2342 = test: cells; assay type: functional, cell-based; conditions: Homo sapiens;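 note: growth inhibition of the cancer cell line, determined with a cell viability assay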
Description: SANGER: Inhibition of human NCI-H2342 cell growth in a cell viability assay.

SNU-C1 = test: cells; assay type: functional, cell-based, Homo sapiens; conditions: Homo sapiens, SNU-C1;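 note: growth inhibition of SNU-C1 human cells, read out by a cell viability assay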
Description: SANGER: Inhibition of human SNU-C1 cell growth in a cell viability assay.

RL95-2 = test: cells; assay type: functional, cell-based, Homo sapiens; conditions: Homo sapiens, RL95-2;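 note: RL95-2 growth inhibition determined through a cell viability readout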
Description: SANGER: Inhibition of human RL95-2 cell growth in a cell viability assay.

HOP-92 = test: cells; assay type: functional, cell-based; conditions: Homo sapiens;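 note: cell viability readout, with IC50 reflecting inhibition of HOP-92 cell growth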
Description: SANGER: Inhibition of human HOP-92 cell growth in a cell viability assay.

FaDu = test: cells; assay type: functional, cell-based; conditions: Homo sapiens;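 note: cell viability readout of growth inhibition in FaDu cells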
Description: SANGER: Inhibition of human FADU cell growth in a cell viability assay.

HuCCT-1 = test: cells; assay type: functional, cell-based, HuCCT1; conditions: Homo sapiens;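 note: growth inhibition of HuCCT-1 cells, read out by a cell viability assay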
Description: SANGER: Inhibition of human HuCCT1 cell growth in a cell viability assay.

HuTu80 = test: cells; assay type: functional, cell-based, Homo sapiens, HUTU-80; conditions: Homo sapiens, HuTu80;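 note: growth inhibition of HuTu80 human cells, determined with a cell viability readout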
Description: SANGER: Inhibition of human HUTU-80 cell growth in a cell viability assay.

MRK-nu-1 = test: cells; assay type: functional, cell-based, Homo sapiens; conditions: Homo sapiens, MRK-nu-1;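 note: cell viability assay measuring growth suppression of human MRK-nu-1 cells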
Description: SANGER: Inhibition of human MRK-nu-1 cell growth in a cell viability assay.

NCI-H1623 = test: cells; assay type: functional, cell-based; conditions: Homo sapiens;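 note: cell viability assay used as the read-out for growth inhibition of NCI-H1623 cells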
Description: SANGER: Inhibition of human NCI-H1623 cell growth in a cell viability assay.

NCI-H2452 = test: cells; assay type: functional, cell-based; conditions: Homo sapiens;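 note: growth inhibition of NCI-H2452 cells, read out with a cell viability assay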
Description: SANGER: Inhibition of human NCI-H2452 cell growth in a cell viability assay.

SW1088 = test: cells; assay type: functional, cell-based; conditions: Homo sapiens;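 note: growth inhibition of human SW1088 cells, read out by a cell viability assay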
Description: SANGER: Inhibition of human SW1088 cell growth in a cell viability assay.

SCC-4 = test: cells; assay type: functional, cell-based; conditions: Homo sapiens;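 note: growth inhibition of human SCC-4 cells, read out as cell viability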
Description: SANGER: Inhibition of human SCC-4 cell growth in a cell viability assay.

MHH-CALL-2 = test: cells; assay type: functional, cell-based, Homo sapiens; conditions: Homo sapiens, MHH-CALL-2;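 note: growth inhibition of the cell line, read out in a cell viability assay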
Description: SANGER: Inhibition of human MHH-CALL-2 cell growth in a cell viability assay.

NCI-H64 = test: cells; assay type: functional, cell-based, Homo sapiens; conditions: Homo sapiens, NCI-H64;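 note: growth inhibition of NCI-H64 cells, read out with a cell viability assay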
Description: SANGER: Inhibition of human NCI-H64 cell growth in a cell viability assay.

CHL-1 = test: cells; assay type: functional, cell-based; conditions: Homo sapiens;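 note: cell growth inhibition, read out with a cell viability assay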
Description: SANGER: Inhibition of human CHL-1 cell growth in a cell viability assay.

KMOE-2 = test: cells; assay type: functional, cell-based, Homo sapiens; conditions: Homo sapiens, KMOE-2;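 note: growth inhibition of human KMOE-2 cells, read out with a cell viability assay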
Description: SANGER: Inhibition of human KMOE-2 cell growth in a cell viability assay.

T84 = test: cells; assay type: functional, cell-based; conditions: Homo sapiens;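 note: growth inhibition measured with a cell viability readout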
Description: SANGER: Inhibition of human T84 cell growth in a cell viability assay.

SW837 = test: cells; assay type: functional, cell-based; conditions: Homo sapiens;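 note: growth inhibition of SW837 cells, determined with a cell viability assay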
Description: SANGER: Inhibition of human SW837 cell growth in a cell viability assay.

NCI-H441 = test: cells; assay type: functional, cell-based; conditions: Homo sapiens;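 note: growth inhibition of NCI-H441 cells, read out with a cell viability assay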
Description: SANGER: Inhibition of human NCI-H441 cell growth in a cell viability assay.

NB1 = test: cells; assay type: functional, cell-based, Homo sapiens; conditions: Homo sapiens, NB1;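 note: reduction of NB1 cell proliferation, read out with a viability assay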
Description: SANGER: Inhibition of human NB1 cell growth in a cell viability assay.

OVCAR-5 = test: cells; assay type: functional, cell-based; conditions: Homo sapiens
Description: SANGER: Inhibition of human OVCAR-5 cell growth in a cell viability assay.

With COC(=O)[C@H](CCSC)NC(=O)c1ccc(NC[C@@H](N)CS)cc1-c1ccccc1 the IC50 (BEN) was > 1020 nM, the IC50 (SKG-IIIa) was > 1020 nM and the IC50 (SK-N-AS) was > 1020 nM. For the same compound, the IC50 (NCI-H2081) was > 1020 nM, the IC50 (HT-1080) was > 1020 nM and the IC50 (GMS-10) was > 1020 nM. For the same compound, the IC50 (HuP-T3) was > 1020 nM, the IC50 (COLO-680N) was > 1020 nM and the IC50 (BXPC-3) was > 1020 nM. The IC50 (OPM-2) was > 1020 nM, the IC50 (HOS) was > 1020 nM and the IC50 (UMUC3) was > 1020 nM. For the same compound, the IC50 (DMS-153) was > 1020 nM, the IC50 (MFH-ino) was > 1020 nM and the IC50 (YT) was > 1020 nM. For the same compound, the IC50 (NCI-H1693) was > 1020 nM, the IC50 (CHP-126) was > 1020 nM and the IC50 (BC1 cell line) was > 1020 nM. For the same compound, the IC50 (SK-MES-1) was > 1020 nM, the IC50 (KYSE-510) was > 1020 nM and the IC50 (SK-MM-2) was > 1020 nM. The IC50 (ABC-1) was > 1020 nM, the IC50 (BFTC-905) was > 1020 nM and the IC50 (CAMA-1) was > 1020 nM. For the same compound, the IC50 (MFE-280) was > 1020 nM, the IC50 (U-251) was > 1020 nM and the IC50 (U2OS) was > 1020 nM. For the same compound, the IC50 (SJRH30) was > 1020 nM, the IC50 (TYK-nu) was > 1020 nM and the IC50 (CP50-MEL-B) was > 1020 nM. The IC50 (FTC-133) was > 1020 nM, the IC50 (RL) was > 1020 nM and the IC50 (COR-L23) was > 1020 nM. For the same compound, the IC50 (SCC-9) was > 1020 nM, the IC50 (ESS-1) was > 1020 nM and the IC50 5637 was > 1020 nM. The IC50 (A673) was > 1020 nM, the IC50 (CWR22R) was > 1020 nM and the IC50 (NCI-H2342) was > 1020 nM. For the same compound, the IC50 (SNU-C1) was > 1020 nM, the IC50 (RL95-2) was > 1020 nM and the IC50 (HOP-92) was > 1020 nM. For the same compound, the IC50 (FaDu) was > 1020 nM, the IC50 (HuCCT-1) was > 1020 nM and the IC50 (HuTu80) was > 1020 nM. For the same compound, the IC50 (MRK-nu-1) was > 1020 nM, the IC50 (NCI-H1623) was > 1020 nM and the IC50 (NCI-H2452) was > 1020 nM. The IC50 (SW1088) was > 1020 nM, the IC50 (SCC-4) was > 1020 nM and the IC50 (MHH-CALL-2) was > 1020 nM. For the same compound, the IC50 (NCI-H64) was > 1020 nM, the IC50 (CHL-1) was > 1020 nM and the IC50 (KMOE-2) was > 1020 nM. For the same compound, the IC50 (T84) was > 1020 nM, the IC50 (SW837) was > 1020 nM and the IC50 (NCI-H441) was > 1020 nM. The IC50 (NB1) was > 1020 nM and the IC50 (OVCAR-5) was > 1020 nM.
In the case of Cc1ccc(C(=O)Nc2ccc(CN3CCN(C)CC3)c(C(F)(F)F)c2)cc1C#Cc1cnc2cccnn12 [PONATINIB], the IC50 (BEN) is reported as > 512 nM, the IC50 (SKG-IIIa) is reported as > 512 nM and the IC50 (SK-N-AS) is reported as > 512 nM. For the same compound, the IC50 (NCI-H2081) was > 512 nM, the IC50 (HT-1080) was > 512 nM and the IC50 (GMS-10) was > 512 nM. The IC50 (HuP-T3) was > 512 nM, the IC50 (COLO-680N) was > 512 nM and the IC50 (BXPC-3) was 350 nM. The IC50 (OPM-2) was 365 nM, the IC50 (HOS) was 504 nM and the IC50 (UMUC3) was > 512 nM. For the same compound, the IC50 (DMS-153) was > 512 nM, the IC50 (MFH-ino) was > 512 nM and the IC50 (YT) was 270 nM. The IC50 (NCI-H1693) was > 512 nM, the IC50 (CHP-126) was > 512 nM and the IC50 (BC1 cell line) was > 512 nM. For the same compound, the IC50 (SK-MES-1) was > 512 nM, the IC50 (KYSE-510) was > 512 nM and the IC50 (SK-MM-2) was > 512 nM. For the same compound, the IC50 (ABC-1) was > 512 nM, the IC50 (BFTC-905) was > 512 nM and the IC50 (CAMA-1) was > 512 nM. For the same compound, the IC50 (MFE-280) was 315 nM, the IC50 (U-251) was > 512 nM and the IC50 (U2OS) was > 512 nM. For the same compound, the IC50 (SJRH30) was > 512 nM, the IC50 (TYK-nu) was > 512 nM and the IC50 (CP50-MEL-B) was > 512 nM. The IC50 (FTC-133) was > 512 nM, the IC50 (RL) was > 512 nM and the IC50 (COR-L23) was > 512 nM. The IC50 (SCC-9) was > 512 nM, the IC50 (ESS-1) was 478 nM and the IC50 5637 was > 512 nM. The IC50 (A673) was > 512 nM, the IC50 (CWR22R) was > 512 nM and the IC50 (NCI-H2342) was 186 nM. For the same compound, the IC50 (SNU-C1) was > 512 nM, the IC50 (RL95-2) was > 512 nM and the IC50 (HOP-92) was > 512 nM. The IC50 (FaDu) was > 512 nM, the IC50 (HuCCT-1) was > 512 nM and the IC50 (HuTu80) was > 512 nM. For the same compound, the IC50 (MRK-nu-1) was > 512 nM, the IC50 (NCI-H1623) was > 512 nM and the IC50 (NCI-H2452) was > 512 nM. The IC50 (SW1088) was 444 nM, the IC50 (SCC-4) was > 512 nM and the IC50 (MHH-CALL-2) was > 512 nM. For the same compound, the IC50 (NCI-H64) was > 512 nM, the IC50 (CHL-1) was > 512 nM and the IC50 (KMOE-2) was > 512 nM. For the same compound, the IC50 (T84) was > 512 nM, the IC50 (SW837) was > 512 nM and the IC50 (NCI-H441) was > 512 nM. The IC50 (NB1) was > 512 nM and the IC50 (OVCAR-5) was > 512 nM.
